In ChEMBL document CHEMBL5154806, “Synthesis and Profiling of Highly Selective Inhibitors of Methyltransferase DOT1L Based on Carbocyclic C-Nucleosides” (J Med Chem, 2022):
Calls of active or inactive are those of the source. The rule behind the calls is not given here.

Legend:
[1] = molecular target: T1, Histone-lysine N-methyltransferase, H3 lysine-79 specific (Homo sapiens, UniProt Q8TEK3); experiment: Inhibition of DOT1L in human OCI-AML5 cells assessed as decrease in H3K79 methylation at 1 to 10 uM using histone H3 as substrate incubated for 5 days by immunoblotting assay; format: cell-based; conditions: dose 1-10 µM, time 5.0 day, DDE = dose-dependent effect
Target sequence in this assay (Q8TEK3 whole entry, looked up): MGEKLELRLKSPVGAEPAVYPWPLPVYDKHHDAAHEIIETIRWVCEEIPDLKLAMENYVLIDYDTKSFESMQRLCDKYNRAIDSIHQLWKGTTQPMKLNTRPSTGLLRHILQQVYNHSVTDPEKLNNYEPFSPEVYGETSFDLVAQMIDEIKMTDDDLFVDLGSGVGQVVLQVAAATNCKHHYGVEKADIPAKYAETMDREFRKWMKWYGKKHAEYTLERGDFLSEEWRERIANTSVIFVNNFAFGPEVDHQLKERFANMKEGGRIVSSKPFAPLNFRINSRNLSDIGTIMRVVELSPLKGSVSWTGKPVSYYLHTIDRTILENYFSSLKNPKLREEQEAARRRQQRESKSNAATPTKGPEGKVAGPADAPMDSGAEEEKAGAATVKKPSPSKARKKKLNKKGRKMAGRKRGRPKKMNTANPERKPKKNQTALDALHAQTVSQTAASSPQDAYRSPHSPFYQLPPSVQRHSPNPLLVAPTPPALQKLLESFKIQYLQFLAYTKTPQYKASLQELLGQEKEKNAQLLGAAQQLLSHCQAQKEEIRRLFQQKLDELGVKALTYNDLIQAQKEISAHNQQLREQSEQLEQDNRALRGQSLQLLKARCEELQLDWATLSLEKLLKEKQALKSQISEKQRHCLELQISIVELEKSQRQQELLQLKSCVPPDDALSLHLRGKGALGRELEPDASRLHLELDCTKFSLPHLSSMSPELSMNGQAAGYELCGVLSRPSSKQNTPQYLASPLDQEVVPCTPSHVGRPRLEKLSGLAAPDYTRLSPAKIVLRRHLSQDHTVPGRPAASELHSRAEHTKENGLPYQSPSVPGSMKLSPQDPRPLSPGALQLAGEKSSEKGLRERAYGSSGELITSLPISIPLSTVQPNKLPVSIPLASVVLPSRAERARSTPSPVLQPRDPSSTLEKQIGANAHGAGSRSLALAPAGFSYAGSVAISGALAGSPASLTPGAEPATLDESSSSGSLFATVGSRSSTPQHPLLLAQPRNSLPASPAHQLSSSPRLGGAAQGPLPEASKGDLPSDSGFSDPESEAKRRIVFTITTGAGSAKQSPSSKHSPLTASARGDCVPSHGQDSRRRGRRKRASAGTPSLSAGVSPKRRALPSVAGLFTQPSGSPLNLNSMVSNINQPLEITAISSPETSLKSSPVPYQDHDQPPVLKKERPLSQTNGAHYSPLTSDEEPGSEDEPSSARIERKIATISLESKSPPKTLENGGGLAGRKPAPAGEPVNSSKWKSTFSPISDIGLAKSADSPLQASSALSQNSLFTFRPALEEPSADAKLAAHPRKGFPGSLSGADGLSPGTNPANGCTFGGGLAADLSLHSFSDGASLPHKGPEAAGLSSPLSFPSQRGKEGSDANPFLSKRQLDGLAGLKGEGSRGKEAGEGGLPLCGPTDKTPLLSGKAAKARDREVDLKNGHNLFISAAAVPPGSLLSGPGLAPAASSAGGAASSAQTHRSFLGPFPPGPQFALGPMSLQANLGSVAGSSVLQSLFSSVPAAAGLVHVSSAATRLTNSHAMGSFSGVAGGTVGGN

[2] = Microsomal stability in BALB/c mouse liver microsomes assessed as intrinsic clearance; format: ADME, Microsome; conditions: read-out: CLH
MOLM-13 [3] = experiment: Downregulation of MEIS1 gene in human MOLM-13 cells at 10 uM measured after 3 to 10 days by qPCR analysis; format: functional, cell-based; conditions: time 3-10 day
[4] = Elimination rate constant in fasted BALB/c mouse at 5 mg/kg, iv administered upto 600 mins by HPLC-MS/MS analysis; format: ADME, organism-based; conditions: BALB/c, in vivo
[5] = Acute toxicity in BALB/c mouse at 20 mg/kg,iv; format: organism-based; conditions: in vivo
[6] = AUC (0 to t) in fasted BALB/c mouse at 20 mg/kg, iv administered upto 600 mins by HPLC-MS/MS analysis; format: ADME, organism-based; design: dose 20 mg/kg, time < 600 min, route iv; conditions: in vivo
[7] = Clearance in fasted BALB/c mouse at 20 mg/kg, iv administered upto 600 mins by HPLC-MS/MS analysis; format: ADME, organism-based; conditions: in vivo
[8] = Cmax in fasted BALB/c mouse at 5 mg/kg, iv administered upto 600 mins by HPLC-MS/MS analysis; format: ADME, organism-based; design: time < 600 min, dose 5 mg/kg, route iv; conditions: in vivo
[9] = AUC (0 to t) in fasted BALB/c mouse at 5 mg/kg, iv administered upto 600 mins by HPLC-MS/MS analysis; format: ADME, organism-based; design: time < 600 min, dose 5 mg/kg, route iv; conditions: in vivo
[10] = Clearance in fasted BALB/c mouse at 5 mg/kg, iv administered upto 600 mins by HPLC-MS/MS analysis; format: ADME, organism-based; conditions: in vivo
[11] = Metabolic stability in BALB/c mouse liver microsomes assessed as parent compound remaining measured after 40 mins; format: ADME, Microsome; conditions: read-out: Stability
MV4-11 = experiment: Cytotoxicity against human MV4-11 cells assessed as reduction of cell viability up to 10 uM incubated for 72 hrs by celltiter-glo assay; format: functional, cell-based; conditions: MV4-11, 72 h
[12] = Cmax in fasted BALB/c mouse at 20 mg/kg, iv administered upto 600 mins by HPLC-MS/MS analysis; format: ADME, organism-based; design: time < 600 min, dose 20 mg/kg, route iv; conditions: in vivo
[13] = AUC (0 to infinity) in fasted BALB/c mouse at 20 mg/kg, iv administered upto 600 mins by HPLC-MS/MS analysis; format: ADME, organism-based; design: dose 20 mg/kg, time < 600 min, route iv; conditions: in vivo
[14] = Half life in fasted BALB/c mouse at 20 mg/kg, iv administered upto 600 mins by HPLC-MS/MS analysis; format: ADME, organism-based; conditions: in vivo
[15] = Elimination rate constant in fasted BALB/c mouse at 20 mg/kg, iv administered upto 600 mins by HPLC-MS/MS analysis; format: ADME, organism-based; conditions: in vivo
[16] = Tmax in fasted BALB/c mouse at 20 mg/kg, iv administered upto 600 mins by HPLC-MS/MS analysis; format: ADME, organism-based; conditions: in vivo
MOLM-13 [17] = experiment: Cytotoxicity against human MOLM-13 cells assessed as reduction of cell viability at 20 to 40 uM incubated for 5 to 15 days by DiOC6/ propidium staining based flow cytometry analysis; format: functional; conditions: dose 20-40 µM, time 5-15 day
[18] = molecular target: T1, Histone-lysine N-methyltransferase, H3 lysine-79 specific; experiment: Inhibition of DOT1L in human MOLM-13 cells assessed as decrease in H3K79 methylation at 1 to 10 uM using histone H3 as substrate incubated for 5 days by immunoblotting assay; format: cell-based; conditions: dose 1-10 µM, time 5.0 day, DDE = dose-dependent effect
Target sequence in this assay (Q8TEK3 whole entry, looked up): as above

[19] = Tmax in fasted BALB/c mouse at 5 mg/kg, iv administered upto 600 mins by HPLC-MS/MS analysis; format: ADME, organism-based; conditions: in vivo
SK-N-MC = experiment: Cytotoxicity against human SK-N-MC cells assessed as reduction of cell viability up to 10 uM incubated for 72 hrs by celltiter-glo assay; format: functional, cell-based
[20] = Volume of distribution in fasted BALB/c mouse at 20 mg/kg, iv administered upto 600 mins by HPLC-MS/MS analysis; format: ADME, organism-based; conditions: in vivo
MOLM-13 [21] = experiment: Cytotoxicity against human MOLM-13 cells assessed as reduction of cell viability up to 10 uM incubated for 72 hrs by celltiter-glo assay; format: functional, cell-based; conditions: MOLM-13, 72 h
SUD4 = experiment: Cytotoxicity against human SU-DHL-4 cells assessed as reduction of cell viability at 20 to 40 uM incubated for 5 to 15 days by DiOC6/ propidium staining based flow cytometry analysis; format: functional; conditions: dose 20-40 µM, time 5-15 day
OCI-AML-3 = experiment: Cytotoxicity against human OCI-AML-3 cells assessed as reduction of cell viability at 20 to 40 uM incubated for 5 to 15 days by DiOC6/ propidium staining based flow cytometry analysis; format: functional; conditions: dose 20-40 µM, time 5-15 day
[22] = molecular target: T1, Histone-lysine N-methyltransferase, H3 lysine-79 specific; experiment: Inhibition of DOT1L in human OCI-AML5 cells assessed as decrease in H3K79 methylation at 1 to 10 uM using histone H3 as substrate incubated for 3 days by immunoblotting assay; format: cell-based; conditions: dose 1-10 µM, time 3.0 day, DDE = dose-dependent effect
Target sequence in this assay (Q8TEK3 whole entry, looked up): as above

SU-DHL-5 = experiment: Cytotoxicity against human SU-DHL-5 cells assessed as reduction of cell viability up to 10 uM incubated for 72 hrs by celltiter-glo assay; format: functional, cell-based; conditions: SU-DHL-5, 72 h
[23] = molecular target: T1, Histone-lysine N-methyltransferase, H3 lysine-79 specific; experiment: Inhibition of DOT1L in human SU-DHL-4 cells assessed as decrease in H3K79 methylation at 1 to 10 uM using histone H3 as substrate incubated for 3 days by immunoblotting assay; format: cell-based; conditions: dose 1-10 µM, time 3.0 day, DDE = dose-dependent effect
Target sequence in this assay (Q8TEK3 whole entry, looked up): as above

[24] = molecular target: T1, Histone-lysine N-methyltransferase, H3 lysine-79 specific; experiment: Inhibition of DOT1L in human SU-DHL-4 cells assessed as decrease in H3K79 methylation at 1 to 10 uM using histone H3 as substrate incubated for 5 days by immunoblotting assay; format: cell-based; conditions: dose 1-10 µM, time 5.0 day, DDE = dose-dependent effect
Target sequence in this assay (Q8TEK3 whole entry, looked up): as above

[25] = molecular target: T1, Histone-lysine N-methyltransferase, H3 lysine-79 specific; experiment: Inhibition of human DOT1L by hotspot PMT activity assay
Target sequence in this assay (Q8TEK3 whole entry): as the sequence (Q8TEK3 whole entry, looked up) above

MOLM-13 [26] = experiment: Downregulation of HOXA9 gene in human MOLM-13 cells at 10 uM measured after 3 to 10 days by qPCR analysis; format: functional, cell-based; conditions: time 3-10 day
MOLM-13 [27] = experiment: Cytotoxicity against human MOLM-13 cells assessed as metabolic activity at 1 to 40 uM incubated for 10 to 15 days by WST-1 assay; format: functional, cell-based; conditions: dose 1-40 µM, time 10-15 day
[28] = molecular target: T1, Histone-lysine N-methyltransferase, H3 lysine-79 specific; experiment: Inhibition of DOT1L in human MOLM-13 cells assessed as decrease in H3K79 methylation at 1 to 10 uM using histone H3 as substrate incubated for 3 days by immunoblotting assay; format: cell-based; conditions: dose 1-10 µM, time 3.0 day, DDE = dose-dependent effect
Target sequence in this assay (Q8TEK3 whole entry, looked up): as above

[29] = AUC (0 to infinity) in fasted BALB/c mouse at 5 mg/kg, iv administered upto 600 mins by HPLC-MS/MS analysis; format: ADME, organism-based; design: dose 5 mg/kg, time < 600 min, route iv; conditions: in vivo
[30] = Volume of distribution in fasted BALB/c mouse at 5 mg/kg, iv administered upto 600 mins by HPLC-MS/MS analysis; format: ADME, organism-based; conditions: in vivo
[31] = Half life in fasted BALB/c mouse at 5 mg/kg, iv administered upto 600 mins by HPLC-MS/MS analysis; format: ADME, organism-based; conditions: BALB/c, in vivo
[32] = molecular target: T1, Histone-lysine N-methyltransferase, H3 lysine-79 specific; experiment: Binding affinity to human DOT1L assessed as binding free energy difference

Compound: CC(C)N(C[C@H]1C[C@@H](c2ccc3c(N)ncnn23)[C@H](O)[C@@H]1O)[C@H]1C[C@@H](CCc2nc3cc(C(C)(C)C)ccc3[nH]2)C1
- Activity [1]: Dde
- microsomal CLint [2]: 56 µL/min/mg
- Activity (MOLM-13 [3]): Active
- k el at 10 h [4]: 0.000202 s⁻¹
- Activity [5]: Non-Toxic
- AUC(0-t) at 10 h [6]: 34700 ng·h/mL
- clearance [7]: 9.54 mL/min/kg
- Cmax [8]: 20.6 µg/mL
- AUC(0-t) at 10 h [9]: 5800 ng·h/mL
- clearance [10]: 14.2 mL/min/kg
- remaining at 40 min [11]: 41%
- EC50 (MV4-11): 1.7 µM
- Cmax [12]: 91.2 µg/mL
- AUC(0-inf) [13]: 35000 ng·h/mL
- half-life [14]: 93.6 min
- k el at 10 h [15]: 0.000123 s⁻¹
- Tmax [16]: 5 min
- Activity (MOLM-13 [17]): Active
- Activity [18]: Dde
- Tmax [19]: 5 min
- EC50 (SK-N-MC): 8.8 µM
- Vd [20]: 1.29 L/kg
- EC50 (MOLM-13 [21]): 7.7 µM
- Activity (SUD4): Active
- Activity (OCI-AML-3): Active
- Activity [22]: Dde
- EC50 (SU-DHL-5): 9 µM
- Activity [23]: Dde
- Activity [24]: Dde
- IC50 [25]: 0.0021 µM
- Activity (MOLM-13 [26]): Active
- Activity (MOLM-13 [27]): Active
- Activity [28]: Dde
- AUC(0-inf) [29]: 5850 ng·h/mL
- Vd [30]: 1.18 L/kg
- half-life [31]: 57.2 min
- deltaG [32]: -0.717 kcal/mol
